From PubChem BioAssay (NCI)
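Test compounds were applied to cells in 96-well plates for 48 hours at 5 doses. Here, GI50 denotes the concentration required for 50% inhibition of growth. At the TGI there is no net growth.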

Key:
Test in all cases: NCI anticancer screen, dose series, 48 h
NCI-H522 lung = system: NCI-H522 lung
RXF 393 renal = system: RXF 393 renal
NCI/ADR-RES ovarian = system: NCI/ADR-RES ovarian
SNB-19 CNS = system: SNB-19 CNS
OVCAR-4 ovarian = system: OVCAR-4 ovarian
HS 578T breast = system: HS 578T breast
786-0 renal = system: 786-0 renal
HOP-62 NSCLC = system: HOP-62 NSCLC
MDA-MB-435 = system: MDA-MB-435
SF-295 CNS = system: SF-295 CNS
CAKI-1 renal = system: CAKI-1 renal
K-562 leukemia = system: K-562 leukemia
SK-MEL-2 melanoma = system: SK-MEL-2 melanoma
SK-MEL-28 melanoma = system: SK-MEL-28 melanoma
OVCAR-5 ovarian = system: OVCAR-5 ovarian
MOLT-4 leukemia = system: MOLT-4 leukemia
HCT-15 colon = system: HCT-15 colon
SW-620 colon = system: SW-620 colon
T-47D breast = system: T-47D breast
COLO 205 colon = system: COLO 205 colon
SK-OV-3 ovarian = system: SK-OV-3 ovarian
SN12C renal = system: SN12C renal
OVCAR-3 ovarian = system: OVCAR-3 ovarian
HCC-2998 colon = system: HCC-2998 colon
HT29 colon = system: HT29 colon
OVCAR-8 ovarian = system: OVCAR-8 ovarian
LOX IMVI melanoma = system: LOX IMVI melanoma
NCI-H460 lung = system: NCI-H460 lung
M14 melanoma = system: M14 melanoma
HCT-116 colon = system: HCT-116 colon
PC-3 prostate = system: PC-3 prostate
UO-31 renal = system: UO-31 renal
U251 CNS = system: U251 CNS
SR leukemia = system: SR leukemia
BT-549 breast = system: BT-549 breast
NCI-H226 lung = system: NCI-H226 lung
MALME-3M melanoma = system: MALME-3M melanoma
HOP-92 NSCLC = system: HOP-92 NSCLC
MDA-MB-231 breast = system: MDA-MB-231 breast
MCF7 breast = system: MCF7 breast
NCI-H23 lung = system: NCI-H23 lung
SNB-75 CNS = system: SNB-75 CNS
SK-MEL-5 melanoma = system: SK-MEL-5 melanoma
UACC-257 melanoma = system: UACC-257 melanoma
DU-145 prostate = system: DU-145 prostate
SF-268 CNS = system: SF-268 CNS
KM12 colon = system: KM12 colon
HL-60(TB) leukemia = system: HL-60(TB) leukemia
CCRF-CEM leukemia = system: CCRF-CEM leukemia
SF-539 CNS = system: SF-539 CNS
A498 renal = system: A498 renal
ACHN renal = system: ACHN renal
RPMI-8226 leukemia = system: RPMI-8226 leukemia
IGROV1 ovarian = system: IGROV1 ovarian
UACC-62 melanoma = system: UACC-62 melanoma
TK-10 renal = system: TK-10 renal
A549 NSCLC = system: A549 NSCLC

SMILES: CC(=O)N[C@@H](Cc1ccc(OP(=O)(O)O)cc1)C(=O)N[C@H]1CCC(=O)N2CCC[C@@H](C(=O)Nc3cccc4ccccc34)N2C1=O
- GI50 (NCI-H522 lung): > 25 µM
- TGI (NCI-H522 lung): > 25 µM
- GI50 (RXF 393 renal): > 25 µM
- TGI (RXF 393 renal): > 25 µM
- GI50 (NCI/ADR-RES ovarian): > 25 µM
- TGI (NCI/ADR-RES ovarian): > 25 µM
- GI50 (SNB-19 CNS): > 25 µM
- TGI (SNB-19 CNS): > 25 µM
- GI50 (OVCAR-4 ovarian): > 25 µM
- TGI (OVCAR-4 ovarian): > 25 µM
- GI50 (HS 578T breast): > 25 µM
- TGI (HS 578T breast): > 25 µM
- GI50 (786-0 renal): > 25 µM
- TGI (786-0 renal): > 25 µM
- GI50 (HOP-62 NSCLC): > 25 µM
- TGI (HOP-62 NSCLC): > 25 µM
- GI50 (MDA-MB-435): > 25 µM
- TGI (MDA-MB-435): > 25 µM
- GI50 (SF-295 CNS): > 25 µM
- TGI (SF-295 CNS): > 25 µM
- GI50 (CAKI-1 renal): > 25 µM
- TGI (CAKI-1 renal): > 25 µM
- GI50 (K-562 leukemia): > 25 µM
- TGI (K-562 leukemia): > 25 µM
- GI50 (SK-MEL-2 melanoma): > 25 µM
- TGI (SK-MEL-2 melanoma): > 25 µM
- GI50 (SK-MEL-28 melanoma): > 25 µM
- TGI (SK-MEL-28 melanoma): > 25 µM
- GI50 (OVCAR-5 ovarian): > 25 µM
- TGI (OVCAR-5 ovarian): > 25 µM
- GI50 (MOLT-4 leukemia): > 25 µM
- TGI (MOLT-4 leukemia): > 25 µM
- GI50 (HCT-15 colon): > 25 µM
- TGI (HCT-15 colon): > 25 µM
- GI50 (SW-620 colon): > 25 µM
- TGI (SW-620 colon): > 25 µM
- GI50 (T-47D breast): > 25 µM
- TGI (T-47D breast): > 25 µM
- GI50 (COLO 205 colon): > 25 µM
- TGI (COLO 205 colon): > 25 µM
- GI50 (SK-OV-3 ovarian): > 25 µM
- TGI (SK-OV-3 ovarian): > 25 µM
- GI50 (SN12C renal): > 25 µM
- TGI (SN12C renal): > 25 µM
- GI50 (OVCAR-3 ovarian): > 25 µM
- TGI (OVCAR-3 ovarian): > 25 µM
- GI50 (HCC-2998 colon): > 25 µM
- TGI (HCC-2998 colon): > 25 µM
- GI50 (HT29 colon): > 25 µM
- TGI (HT29 colon): > 25 µM
- GI50 (OVCAR-8 ovarian): > 25 µM
- TGI (OVCAR-8 ovarian): > 25 µM
- GI50 (LOX IMVI melanoma): > 25 µM
- TGI (LOX IMVI melanoma): > 25 µM
- GI50 (NCI-H460 lung): > 25 µM
- TGI (NCI-H460 lung): > 25 µM
- GI50 (M14 melanoma): > 25 µM
- TGI (M14 melanoma): > 25 µM
- GI50 (HCT-116 colon): > 25 µM
- TGI (HCT-116 colon): > 25 µM
- GI50 (PC-3 prostate): > 25 µM
- TGI (PC-3 prostate): > 25 µM
- GI50 (UO-31 renal): > 21.4 µM
- TGI (UO-31 renal): > 25 µM
- GI50 (U251 CNS): > 25 µM
- TGI (U251 CNS): > 25 µM
- GI50 (SR leukemia): > 25 µM
- TGI (SR leukemia): > 25 µM
- GI50 (BT-549 breast): > 25 µM
- TGI (BT-549 breast): > 25 µM
- GI50 (NCI-H226 lung): > 25 µM
- TGI (NCI-H226 lung): > 25 µM
- GI50 (MALME-3M melanoma): > 25 µM
- TGI (MALME-3M melanoma): > 25 µM
- GI50 (HOP-92 NSCLC): > 23.9 µM
- TGI (HOP-92 NSCLC): > 25 µM
- GI50 (MDA-MB-231 breast): > 25 µM
- TGI (MDA-MB-231 breast): > 25 µM
- GI50 (MCF7 breast): > 25 µM
- TGI (MCF7 breast): > 25 µM
- GI50 (NCI-H23 lung): > 25 µM
- TGI (NCI-H23 lung): > 25 µM
- GI50 (SNB-75 CNS): > 19.8 µM
- TGI (SNB-75 CNS): > 25 µM
- GI50 (SK-MEL-5 melanoma): > 25 µM
- TGI (SK-MEL-5 melanoma): > 25 µM
- GI50 (UACC-257 melanoma): > 25 µM
- TGI (UACC-257 melanoma): > 25 µM
- GI50 (DU-145 prostate): > 25 µM
- TGI (DU-145 prostate): > 25 µM
- GI50 (SF-268 CNS): > 25 µM
- TGI (SF-268 CNS): > 25 µM
- GI50 (KM12 colon): > 25 µM
- TGI (KM12 colon): > 25 µM
- GI50 (HL-60(TB) leukemia): > 25 µM
- TGI (HL-60(TB) leukemia): > 25 µM
- GI50 (CCRF-CEM leukemia): > 25 µM
- TGI (CCRF-CEM leukemia): > 25 µM
- GI50 (SF-539 CNS): > 25 µM
- TGI (SF-539 CNS): > 25 µM
- GI50 (A498 renal): > 25 µM
- TGI (A498 renal): > 25 µM
- GI50 (ACHN renal): > 25 µM
- TGI (ACHN renal): > 25 µM
- GI50 (RPMI-8226 leukemia): > 25 µM
- TGI (RPMI-8226 leukemia): > 25 µM
- GI50 (IGROV1 ovarian): > 25 µM
- TGI (IGROV1 ovarian): > 25 µM
- GI50 (UACC-62 melanoma): > 25 µM
- TGI (UACC-62 melanoma): > 25 µM
- GI50 (TK-10 renal): > 25 µM
- TGI (TK-10 renal): > 25 µM
- GI50 (A549 NSCLC): > 25 µM
- TGI (A549 NSCLC): > 25 µM
